What was measured:
Test in all cases: relative viability (nuclei count vs DMSO), 5 days (fraction); higher = more cells survive
[1] = compound: CC1=C(CC(=O)O)c2cc(F)ccc2/C1=C\c1ccc([S+](C)[O-])cc1 [Sulindac] + COc1cccc2cc(-c3nc([C@H]4CC[C@H](C(=O)O)CC4)n4ncnc(N)c34)[nH]c12 [OSI-027] (partner 0.5 µM)
Procedure, shortened: (§1)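 Cells from lung cancer lines were seeded into 1536-well plates and, one day later, dosed by pin tool. Treatments were either a single drug or a fixed dose of an anchor drug with five library-drug doses (not always all listed) in √10 steps. After 5 days, nuclei were stained in a one-step fixation (final 0.05% Triton X-100, 1% formaldehyde, 1 ug/ml Hoechst) and counted on 4× images, and relative viability is the treated-to-vehicle nuclei ratio, as the median of duplicate plates.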

[2] = compound: CC1=C(CC(=O)O)c2cc(F)ccc2/C1=C\c1ccc([S+](C)[O-])cc1 [Sulindac] + O=C(CCCCCCC(=O)Nc1ccccc1)NO [Vorinostat] (partner 1 µM)
Procedure, shortened: as §1

[3] = compound: O=c1[nH]cc(F)c(=O)[nH]1 [5-Fluorouracil] + Cc1nc(NC(=O)N2CCC[C@H]2C(N)=O)sc1-c1ccnc(C(C)(C)C(F)(F)F)c1 [Alpelisib] (partner 2 µM)
Procedure, shortened: as §1

[4] = compound: CN[C@@H]1C[C@H]2O[C@@](C)([C@@H]1OC)n1c3ccccc3c3c4c(c5c6ccccc6n2c5c31)C(=O)NC4 [Staurosporine] + COc1cccc2cc(-c3nc([C@H]4CC[C@H](C(=O)O)CC4)n4ncnc(N)c34)[nH]c12 [OSI-027] (partner 0.5 µM)
Procedure, shortened: as §1

Cell Line | relative viability ([1]; first compound 0.08 µM) | relative viability ([1]; first compound 0.253 µM) | relative viability ([1]; first compound 0.8 µM) | relative viability ([1]; first compound 2.53 µM) | relative viability ([1]; first compound 8 µM) | relative viability ([2]; first compound 0.08 µM) | relative viability ([2]; first compound 0.253 µM) | relative viability ([2]; first compound 0.8 µM) | relative viability ([2]; first compound 2.53 µM) | relative viability ([2]; first compound 8 µM) | relative viability ([3]; first compound 0.02 µM) | relative viability ([3]; first compound 0.2 µM) | relative viability ([3]; first compound 0.6325 µM) | relative viability ([3]; first compound 2 µM) | relative viability ([4]; first compound 0.005 µM) | relative viability ([4]; first compound 0.05 µM) | relative viability ([4]; first compound 0.1581 µM) | relative viability ([4]; first compound 0.5 µM) | relative viability ([4]; first compound 0.01581 µM)
NCI-H2170 | 0.694 | 0.72 | 0.684 | 0.739 | 0.756 | 0.937 | 0.741 | 0.69 | 0.833 | 0.924 | 0.82 | 0.734 | 0.472 | 0.452 | 0.815 | 0.576 | 0.175 | 0.0943 | –
HCC-366 | 1.33 | 1.11 | 0.947 | 0.836 | 0.964 | 0.365 | 0.333 | – | 0.351 | 0.416 | 0.227 | 0.466 | 0.182 | 0.0921 | 0.952 | 0.463 | 0.0332 | 0.0243 | –
NCI-H2405 | 0.664 | 0.711 | 0.736 | 0.602 | 0.685 | 1.08 | 1.04 | 0.923 | 0.971 | 1.28 | 0.793 | 0.705 | 0.737 | 0.609 | 0.593 | 0.116 | 0.0974 | 0.0903 | 0.182
COR-L 105 | 0.653 | 0.747 | 0.498 | 0.635 | 0.843 | 0.95 | 0.982 | 0.856 | 0.77 | 0.967 | 0.725 | 1.11 | 0.874 | 0.449 | 0.279 | 0.269 | 0.266 | 0.183 | 0.173
201T | 0.746 | 0.802 | 0.744 | 0.727 | 0.879 | 1.13 | 0.993 | 0.84 | 0.944 | 0.999 | 0.979 | 0.873 | 0.325 | 0.332 | 0.462 | 0.454 | 0.247 | – | 0.338
NCI-H2228 | 0.794 | 0.687 | 0.533 | 0.502 | 0.56 | 0.588 | 0.831 | 0.497 | 0.981 | 0.865 | 0.582 | 0.655 | 0.59 | 0.409 | 0.689 | 0.188 | 0.0855 | 0.0902 | 0.273
LC-2-ad | 0.763 | 0.986 | 0.686 | 0.701 | 0.776 | 0.833 | 0.843 | 0.669 | 0.693 | 0.821 | 0.878 | 0.884 | 0.514 | 0.339 | 0.807 | 0.342 | 0.216 | 0.199 | 0.25
NCI-H1623 | 0.401 | 0.427 | 0.415 | 0.409 | 0.421 | – | – | – | – | – | – | – | – | – | 0.517 | 0.547 | 0.441 | 0.304 | 0.542
IA-LM | – | – | – | – | – | 1.07 | 1.21 | – | 0.913 | 0.981 | 0.682 | 0.37 | 0.175 | 0.182 | – | – | – | – | –
NCI-H1792 | 0.848 | 0.884 | – | 0.815 | 0.899 | – | – | – | – | – | 0.691 | 0.606 | 0.168 | 0.116 | – | 0.347 | 0.282 | 0.323 | 0.635
NCI-H522 | 0.788 | 0.777 | 0.666 | 0.62 | 0.645 | 0.673 | 0.829 | 0.747 | 0.906 | 0.964 | – | – | – | – | 0.814 | 0.606 | 0.497 | 0.538 | –
NCI-H1299 | – | – | – | – | – | – | – | – | – | – | 1.11 | 1.14 | 0.953 | 0.763 | – | – | – | – | –
NCI-H1563 | 0.754 | 0.784 | 0.762 | 0.703 | 0.784 | – | – | – | – | – | 0.772 | 0.931 | 0.821 | 0.841 | 0.65 | 0.562 | 0.523 | 0.488 | 0.573
NCI-H1650 | 0.452 | 0.567 | – | 0.45 | 0.734 | 0.586 | 0.54 | 0.605 | 0.486 | 0.557 | – | – | – | – | 0.357 | 0.142 | 0.168 | – | 0.187
Calu-6 | – | – | – | – | – | – | – | – | – | – | 1.03 | 0.976 | 0.684 | 0.448 | – | – | – | – | –
EBC-1 | – | – | – | – | – | – | – | – | – | – | 0.865 | 0.841 | 0.792 | 0.612 | – | – | – | – | –
NCI-H1648 | 0.25 | 0.242 | 0.298 | 0.268 | 0.265 | 0.44 | 0.318 | – | 0.402 | 0.512 | – | – | – | – | 0.245 | 0.207 | 0.293 | 0.314 | 0.199
NCI-H1703 | – | – | – | – | – | – | – | – | – | – | 0.279 | 0.327 | 0.371 | 0.359 | – | – | – | – | –
ChaGo-K-1 | 0.68 | 0.644 | 0.398 | 0.57 | 0.61 | 0.874 | 0.822 | 0.575 | 0.755 | 0.907 | – | – | – | – | 0.678 | 0.553 | 0.135 | 0.118 | 0.203
SW 900 | – | 0.566 | – | 0.42 | 0.555 | 0.553 | 0.47 | – | – | 0.578 | – | – | – | – | 0.334 | 0.204 | 0.108 | 0.0798 | 0.182
NCI-H2342 | 0.591 | 0.578 | 0.546 | 0.618 | 0.694 | 0.791 | 0.774 | 0.619 | 0.669 | 0.791 | – | – | – | – | 0.702 | 0.438 | 0.402 | 0.37 | 0.482
A549 | – | – | – | – | – | – | – | – | – | – | 0.587 | 0.476 | 0.256 | 0.113 | – | – | – | – | –
